Assay results: patent publication US6437146B1, “Oxazole compounds as prostaglandin e2 agonists or antagonists” (Fujisawa Pharmaceutical Co., Ltd., priority 1998, dated 2002)

Legend:
[1] = target: T1, prostanoide receptor subtype (human EP4) (Homo sapiens, UniProt P35408); experiment: Binding assay using expression of prostanoide receptor subtype ([3H]-PGE2, membrane fraction of transfected COS-7 cells); conditions: test compound 1.0 × 10^−7M; [3H]-PGE2 binding, COS-7 membrane, human EP4, 1 hour at 30° C.
T1 construct: expressed in transfected cells; host or cells: COS-7 cells (membrane fraction)
Protocol: Binding Assay Using Expression of Prostanoide Receptor Subtype
The membrane fraction was prepared using COS-7 cells transfected prostanoide receptor subtype (human EP4).
The standard assay mixture contained membrane fraction, [^3H]-PGE2 in final volume of 0.25 ml was incubated for 1 hour at 30° C. The reaction was terminated by that the mixture was rapidly filtered through a glass filter (GF/B). Then the filter was washed by 4ml of ice-cold buffer at two times. The radioactivity associated with the filter was measured by liquid scintillation counting.
In the experiment for competition of specific [^3H]-PGE2 was added at a concentration of 10 μM. The following buffer was used in all reactions.
Buffer: 20 mM Mes (pH 6.0), 1 mM EDTA, 10 mM MgCl2

[2] = system: Mesangial Proliferative Glomerulonephritis Model; experiment: Mesangial proliferative glomerulonephritis model (OX-7 mAb i.v.), urinary protein; format: in vivo; conditions: 24 h urine 1 day after OX-7, female Wistar rats, Normal 40.8 ± 2.3, Control 127.9 ± 12.6
Protocol: Methods of Mesangial Proliferative Glomerulonephritis Model
Female Wistar rats, 6 weeks old were purchased from SLC (Shizuoka, Japan). Glomerulosclerosis model was produced by intravenous injections (i.v.) of the monoclonal antibody (mAb), MRC OX-7 (Dainippon Co. Ltd., Osaka, Japan). The 8 weeks old rats were divided into 4 groups (10 rats/group). Group 1 was injected saline instead of OX-7 as a normal group and treated with vehicle (0.5% methylcellulose solution) only. Group 2 was also treated with the vehicle only after the injection of 1 mg/kg OX-7 as a control group. Group 3 and Group 4 were treated with N-benzylsulfonyl-3-{[(1S)-2-(4,5-diphenyloxazol-2-yl)-2-cyclohexen-1-yl]methyl}benzamide (Example 2-75), as shown in the following Table. The compound was orally given every day from 5 days before to one day after i.v. administration of the antibody. Urine was collected for 24 hours from the rats in metabolic cages 1 day after injection of OX-7 and the amount of protein in each sample was determined by the biuret method using bovine serum albumine as the standard. All the rats were sacrificed 2 days after injection of OX-7. Blood biochemical analysis was carried out. [drawing 11]

T1 sequence (P35408 whole entry): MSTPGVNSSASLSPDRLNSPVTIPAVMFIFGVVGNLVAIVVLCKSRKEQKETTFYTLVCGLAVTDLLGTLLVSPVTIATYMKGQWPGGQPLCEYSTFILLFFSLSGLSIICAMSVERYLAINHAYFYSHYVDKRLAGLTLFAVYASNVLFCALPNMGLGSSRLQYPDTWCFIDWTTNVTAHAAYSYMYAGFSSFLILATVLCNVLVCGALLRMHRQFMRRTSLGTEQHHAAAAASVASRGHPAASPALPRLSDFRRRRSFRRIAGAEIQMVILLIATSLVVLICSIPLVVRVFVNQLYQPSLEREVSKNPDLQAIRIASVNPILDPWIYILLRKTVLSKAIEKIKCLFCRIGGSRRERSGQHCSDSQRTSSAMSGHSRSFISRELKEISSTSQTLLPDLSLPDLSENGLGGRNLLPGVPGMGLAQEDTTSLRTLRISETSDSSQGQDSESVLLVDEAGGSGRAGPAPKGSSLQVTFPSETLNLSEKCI

Structure (SMILES) | Inhibition (%) [1] | inhibition at 0.1 µM [1] | Urinary Protein ([2]; 1 mg/kg orally every day from 5 days before to one day after OX-7) | Urinary Protein ([2]; 10 mg/kg orally every day from 5 days before to one day after OX-7)
O=C(NCC(O)c1ccccc1)c1cccc(C[C@@H]2CCC[C@H]2c2nc(-c3ccccc3)c(-c3ccccc3)o2)c1 (stereo partly drawn) [Example 1-47, N-[(2-hydroxy-2-phenyl)ethyl]-3-{[(1S,2R)-2-(4,5-diphenyloxazol-2-yl)-1-cyclopentyl]methyl}benzamide] | ≧80% | – | – | –
O=C(NCC(c1ccccc1)c1ccccc1)c1cccc(C[C@@H]2CCC[C@H]2c2nc(-c3ccccc3)c(-c3ccccc3)o2)c1 [Example 1-50, N-(2,2-diphenylethyl)-3-{[(1S,2R)-2-(4,5-diphenyloxazol-2-yl)-1-cyclopentyl]methyl}benzamide] | – | ≥ 80% | – | –
O=C(NOCc1ccccc1)c1cccc(C[C@@H]2CCCC=C2c2nc(-c3ccccc3)c(-c3ccccc3)o2)c1 [Example 2-46, N-benzyloxy-3-{[(1S)-2-(4,5-diphenyloxazol-2-yl)-2-cyclohexen-1-yl]methyl}benzamide] | – | ≥ 80% | – | –
O=C(NS(=O)(=O)Cc1ccccc1)c1cccc(C[C@@H]2CCCC=C2c2nc(-c3ccccc3)c(-c3ccccc3)o2)c1 [Example 2-75, N-benzylsulfonyl-3-{[(1S)-2-(4,5-diphenyloxazol-2-yl)-2-cyclohexen-1-yl]methyl}benzamide] | – | ≥ 80% | 98.2 ± 20.9 mg/day | 66.4 ± 6.9 mg/day
